Experiments:
[1] = tested on: Trauma and 27 ml/kg hemorrhagic shock; experiment: Second albumin study: trauma and 27 ml/kg hemorrhagic shock model, albumin bolus then crystalloid as needed; assay type: in vivo
Method: Rats were acclimated for at least 5 days after arrival at the facility prior to experimental procedures. Trauma and 27 ml/kg hemorrhagic shock models in the art were used with some modifications: 1) an extended observation period considered entirely pre-hospital to represent prolonged field care and 2) a reduction in isoflurane during hemorrhage, intended to reduce the mortality prior to resuscitation (FIG. 28). Rats were assigned into 4 treatment groups: Crystalloid (N=15), OA-saturated BSA (OA-BSA; N=17), CA-saturated BSA (CA-BSA; N=17), and pharmaceutical HSA (N=17). Adult, male Sprague Dawley rats (Charles River Laboratories, Houston, TX) between 325 and 400 g in body weight (BW) were induced with isoflurane (4%) in medical air, then maintained at 2-3% throughout instrumentation. Core temperature was maintained (36-37° C.) using a heating pad and monitored with a rectal probe (Physitemp, Clifton, NJ). The carotid artery was cannulated for continuous pressure recording, the left femoral artery for controlled hemorrhage, and the left femoral vein for blood sampling and resuscitation fluid administration. PE50 tubing for vessel cannulations was soaked overnight in heparin to reduce clotting.
Laparotomy was performed to induce trauma, then the opening was covered with plastic wrap. […]

hemorrhagic shock = assay type: in vivo, rats
Method: Two studies of resuscitation by albumin after hemorrhage were performed. In the first study, resuscitation by a crystalloid (control) was compared to resuscitation with either a bolus of bovine serum albumin (BSA) saturated with oleic acid (OA-BSA) or a bolus of NEFA-free albumin, followed by crystalloid, as needed. As commercially available pharmaceutical grade albumin is human albumin (HSA) that is nearly saturated with caprylic acid, instead of oleic acid, in the second study OA-BSA, caprylic acid-saturated BSA (CA-BSA), and pharmaceutical grade human serum albumin (HSA) were compared. A crystalloid-only group (“Crystalloid Only Group”) was also run as a control. […] There were no significant differences among the Albumin Groups (all containing high concentrations of NEFA) in any of the other measurements.
Laparotomy was performed to induce trauma, then the opening was covered with plastic wrap. The right hind leg was elevated and an inflatable tourniquet (digit cuff, Hokanson, Bellevue, WA) was positioned on the leg, but not yet inflated. For the second albumin study, isoflurane was lowered to 1% immediately before start of hemorrhage. Rats were hemorrhaged (2 ml/min/kg BW) by syringe pump until MAP dropped to 35 mmHg (designated as time T=0 h). At that time, the tourniquet was inflated using a Portable Tourniquet System (Delfi Medical, Vancouver, Canada), representing first aid. The controlled hemorrhage rate was then reduced to 0.6 ml/min/kg to simulate hemorrhage not controlled by tourniquet (e.g., from another injury site or imperfect application). Blood pressure was maintained at 33-38 mmHg by adjusting the draw rate (0.2-0.8 ml/min/kg), until the total hemorrhage reached 27 ml/kg. […] The bolus size was chosen as the estimated dosage needed to replace the albumin lost to hemorrhage. […] At T=2 h, representing the maximum recommended time before conversion to hemostatic dressing 16, the tourniquet was deflated and removed. Surviving animals were euthanized at T=4 h by intravenous administration of 0.2 ml of sodium pentobarbital euthanasia solution (Beuthanasia, Merck Animal Health, Madison, NJ), while still under anesthesia. After euthanasia, the right lung was harvested for moisture analysis (MA160, Sartorious, Bohemia, NY) and the left lung for collection of BALF (3X bronchoalveolar lavage fluid with 3 ml saline). Following the final lavage, the left lung was infused with formalin fixative for histological analysis. The liver, heart, spleen, kidney, and jejunum were also collected and fixed in formalin for histological analysis.

Row | Substance | loss of protein from the circulation (plasma/total protein T2 to T4) ([1]; second study, FIG. 2 and FIG. 3) | amount of resuscitation fluid required to keep pressure at a sufficient level (hemorrhagic shock; first study) [mL/kg] | effect on pressure relative to OA-BSA and Crystalloid Only Group (hemorrhagic shock; first study) | vascular leakage (hemorrhagic shock; rat, in vivo) | loss of protein from the circulation (plasma/total protein T2 to T4) ([1]; rat, in vivo) | significantly reduced mortality compared to the Crystalloid Only Group (hemorrhagic shock; first study) | mortality (hemorrhagic shock; first study, FIG. 4) [%]
1 | CA-BSA: caprylic acid-saturated BSA | significant drop | – | – | – | – | – | –
2 | NEFA-free albumin: albumin preparation with a NEFA content of 0-0.14% by weight of albumin; bovine serum albumin in the experiments | – | 46 | intermediate between the other two groups | did not cause vascular leakage | – | – | –
3 | OA-BSA: bovine serum albumin (BSA) saturated with oleic acid, 25% bolus | – | 6 | – | – | significant drop | significantly reduced mortality | 8
